The values that follow come from PubChem BioAssay AID1195 (EPA DSSTox, 2008).

This data set relates to human maximum recommended daily dose, FDA database. The experiment in a line: DSSTox (FDAMDD) FDA Maximum (Recommended) Daily Dose Database. The note with it: hits give low values. In outline: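 MRDD values come from clinical trials with daily oral dosing, usually for 3–12 months, for the average adult, in mg/day converted to mg/kg-bw/day assuming 60 kg. Antineoplastic mg/m2 doses are divided by 37. Activity score maps log10(1/MRDD mmol) onto 1–100.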

Setting [1] is: TherapeuticCategory: antibacterial.
The mark [2] stands for this setting: TherapeuticCategory: antihypertensive.
[3] abbreviates: TherapeuticCategory: anticholinergic.
[4] abbreviates: TherapeuticCategory: antineoplastic.
Setting [5] is: TherapeuticCategory: diagnostic aid.
Setting [6] is: TherapeuticCategory: antihistaminic.
[7] abbreviates: TherapeuticCategory: anthelmintic.
Setting [8] is: TherapeuticCategory: antidepressant.
The mark [9] stands for this setting: TherapeuticCategory: antipsychotic.

For `CCCCCCc1ccc(O)cc1O`, for the setting “TherapeuticCategory: antihelmintic, antiseptic”, the maximum recommended daily dose (mmol/kg-bw/day) is 0.0858.
Consider `O=S(O)CNc1ccc(S(=O)(=O)c2ccc(NCS(=O)O)cc2)cc1`, for which the maximum recommended daily dose (mmol/kg-bw/day) under setting [1] is 0.0111.
Regarding `CC1=NS(=O)(=O)c2cc(Cl)ccc2N1`, the maximum recommended daily dose (mmol/kg-bw/day) under setting [2] is 0.0347.
Take `C[N+]12CCC(CC1)C(OC(=O)C(O)(c1ccccc1)c1ccccc1)C2` (stereo not drawn): the maximum recommended daily dose (mmol/kg-bw/day) under setting [3] is 0.00077.
Consider `COc1cc([C@@H]2c3cc4c(cc3C(O[C@@H]3O[C@@H]5COC(c6cccs6)O[C@H]5[C@H](O)[C@H]3O)C3COC(=O)[C@@H]32)OCO4)cc(OC)c1O` (stereo partly drawn), for which the maximum recommended daily dose (mmol/kg-bw/day) under setting [4] was 0.0107.
In the case of `CCCCC(=O)O[C@]1(C(=O)COC(C)=O)CC[C@H]2[C@@H]3CCC4=CC(=O)C=C[C@]4(C)[C@H]3[C@@H](O)C[C@@]21C`, under “TherapeuticCategory: glucocorticoid”, the maximum recommended daily dose (mmol/kg-bw/day) is 0.00684.
For `OC(CCCN1CCCCC1)(c1ccccc1)c1ccccc1`, for the setting “TherapeuticCategory: antiemetic”, the maximum recommended daily dose (mmol/kg-bw/day) was 0.0162.
As to `CC(=O)Nc1c(I)c(C(=O)O)c(I)c(N(C)C(C)=O)c1I`, the maximum recommended daily dose (mmol/kg-bw/day) under setting [5] is 0.159.
As for `C=CCC1(CC=C)C(=O)NC(=O)NC1=O`, under “TherapeuticCategory: sedative, hypnotic”, the maximum recommended daily dose (mmol/kg-bw/day) is 0.016.
As to `CC1=C(/C=C/C(C)=C/C=C/C(C)=C/C=C/C=C(C)/C=C/C=C(C)/C=C/C2=C(C)CCCC2(C)C)C(C)(C)CCC1`, the maximum recommended daily dose (mmol/kg-bw/day) (TherapeuticCategory: vitamin A precursor, UV screen) is 9.31e-05.
Take `C[C@@H](O)[C@H]1C(=O)N2C(C(=O)O)=C(SCCN=CN)C[C@H]12`: under setting [1], the maximum recommended daily dose (mmol/kg-bw/day) was 0.223.
As for `N[C@@H](Cc1ccc(O)cc1)C(=O)O`, where the note is “TherapeuticCategory: none”, the maximum recommended daily dose (mmol/kg-bw/day) was 0.552.
On to `N[C@@H](Cc1cc(I)c(Oc2cc(I)c(O)c(I)c2)c(I)c1)C(=O)O`, for which the maximum recommended daily dose (mmol/kg-bw/day) (TherapeuticCategory: hyperthyroidism) is 1.07e-05.
With `O=P(O)(O)OC(CO)CO`, the maximum recommended daily dose (mmol/kg-bw/day) (TherapeuticCategory: none) was 0.388.
Regarding `CC(C)(C)NCC(O)COc1cccc2c1C[C@H](O)[C@H](O)C2` (stereo partly drawn), the maximum recommended daily dose (mmol/kg-bw/day) (TherapeuticCategory: antihypertensive, antianginal) was 0.0346.
Take `Cc1c(OCC(F)(F)F)ccnc1CS(=O)c1nc2ccccc2[nH]1` (stereo not drawn): for the setting “TherapeuticCategory: antiulcerative, anti infective”, the maximum recommended daily dose (mmol/kg-bw/day) is 0.00135.
Turning to `CC(=O)CCCCn1c(=O)c2c(ncn2C)n(C)c1=O`, the maximum recommended daily dose (mmol/kg-bw/day) (TherapeuticCategory: vasodilator) is 0.0719.
Regarding `COCc1c(C(C)C)nc(C(C)C)c(/C=C/[C@@H](O)C[C@@H](O)CC(=O)O)c1-c1ccc(F)cc1`, for the setting “TherapeuticCategory: antihyperlipoproteinemic”, the maximum recommended daily dose (mmol/kg-bw/day) was 1.09e-05.
As for `CC(COc1ccccc1)N(CCCl)Cc1ccccc1` (stereo not drawn), the maximum recommended daily dose (mmol/kg-bw/day) under setting [2] is 0.00658.
Take `CCCCC1=NC2(CCCC2)C(=O)N1Cc1ccc(-c2ccccc2-c2nn[nH]n2)cc1`: under setting [2], the maximum recommended daily dose (mmol/kg-bw/day) is 0.0117.
Turning to `COc1ccc(CN(CCN(C)C)c2ccccn2)cc1`, the maximum recommended daily dose (mmol/kg-bw/day) under setting [6] was 0.00438.
Take `CO[C@H]1C[C@H](O[C@H]2[C@H](C)O[C@@H](O[C@@H]3/C(C)=C/C[C@@H]4C[C@@H](C[C@]5(CC[C@H](C)[C@@H](C(C)C)O5)O4)OC(=O)[C@@H]4C=C(C)[C@@H](O)[C@H]5OC/C(=C\C=C\[C@@H]3C)[C@]54O)C[C@@H]2OC)O[C@@H](C)[C@@H]1O`: the maximum recommended daily dose (mmol/kg-bw/day) under setting [7] is 0.000174.
Take `C#C[C@]1(O)CC[C@H]2[C@@H]3[C@H](C)CC4=C(CCC(=O)C4)[C@H]3CC[C@@]21C`: where the note is “TherapeuticCategory: treatment of menopausal syndrome”, the maximum recommended daily dose (mmol/kg-bw/day) is 0.000133.
As to `CC(C)(O)c1ccccc1CC[C@@H](SCC1(CC(=O)O)CC1)c1cccc(/C=C/c2ccc3ccc(Cl)cc3n2)c1`, the maximum recommended daily dose (mmol/kg-bw/day) (TherapeuticCategory: antiasthmatic) was 0.000285.
Consider `CN(C)CCOC(c1ccccc1)c1ccc(Br)cc1` (stereo not drawn), for which the maximum recommended daily dose (mmol/kg-bw/day) under setting [6] is 0.00748.
Take `Cc1c(-c2ccccc2)oc2c(C(=O)OCCN3CCCCC3)cccc2c1=O`: the maximum recommended daily dose (mmol/kg-bw/day) (TherapeuticCategory: antispasmodic) is 0.034.
Consider `Clc1ccc2nsnc2c1NC1=NCCN1`, for which the maximum recommended daily dose (mmol/kg-bw/day) (TherapeuticCategory: skeletal muscle relaxant) was 0.00236.
On to `CCCCNC(=O)NS(=O)(=O)c1ccc(C)cc1`, for which, under “TherapeuticCategory: hypoglycemic agent”, the maximum recommended daily dose (mmol/kg-bw/day) was 0.123.
For `CC(=O)O[C@H]1CC[C@@]2(C)C(=CC[C@@H]3[C@@H]2CC[C@]2(C)C(=O)CC[C@@H]32)C1`, the maximum recommended daily dose (mmol/kg-bw/day) (TherapeuticCategory: androgen) was 0.0101.
With `O=C(O)c1cc(N=Nc2ccc(O)c(C(=O)O)c2)ccc1O`, for the setting “TherapeuticCategory: treatment of ulcerative colitis”, the maximum recommended daily dose (mmol/kg-bw/day) is 0.0553.
Turning to `Cc1ccsc1C(=CCCN1CCC[C@@H](C(=O)O)C1)c1sccc1C`, the maximum recommended daily dose (mmol/kg-bw/day) (TherapeuticCategory: anticonvulsant) was 0.00285.
Turning to `Nc1ccc(N=Nc2ccccc2)c(N)n1`, under “TherapeuticCategory: analgesic”, the maximum recommended daily dose (mmol/kg-bw/day) was 0.0313.
As to `CN(C)CCC(c1ccc(Br)cc1)c1ccccn1` (stereo not drawn), the maximum recommended daily dose (mmol/kg-bw/day) under setting [6] is 0.00125.
Turning to `CC(=O)c1ccc(S(=O)(=O)NC(=O)NC2CCCCC2)cc1`, the maximum recommended daily dose (mmol/kg-bw/day) (TherapeuticCategory: antidiabetic) was 0.0771.
For `CNC(C)Cc1ccccc1OC` (stereo not drawn), the maximum recommended daily dose (mmol/kg-bw/day) (TherapeuticCategory: bronchodilator) is 0.0558.
Turning to `CC(C)NCC(O)c1ccc(NS(C)(=O)=O)cc1` (stereo not drawn), the maximum recommended daily dose (mmol/kg-bw/day) (TherapeuticCategory: antianginal, antiarrhythmic, antihypertensive) is 0.0196.
Consider `CNC[C@H](O)c1ccc(O)c(O)c1`, for which the maximum recommended daily dose (mmol/kg-bw/day) (TherapeuticCategory: adrenergic, bronchodilator, mydriatic, antiglaucoma) was 9.12e-05.
As to `CCn1cc(C(=O)O)c(=O)c2cc(F)c(N3CCNCC3)nc21`, the maximum recommended daily dose (mmol/kg-bw/day) under setting [1] was 0.0624.
Consider `C#CCN(C)[C@H](C)Cc1ccccc1`, for which the maximum recommended daily dose (mmol/kg-bw/day) (TherapeuticCategory: antiparkinsonian) was 0.000892.
`N[C@@H]1C[C@H]1c1ccccc1`: the maximum recommended daily dose (mmol/kg-bw/day) under setting [8] was 0.00751.
`N=C(N)c1ccc(OCCCCCOc2ccc(C(=N)N)cc2)cc1`: where the note is “TherapeuticCategory: antiprotozoal”, the maximum recommended daily dose (mmol/kg-bw/day) is 0.0118.
`CN1CCN(C2=Nc3ccccc3Sc3ccc(Cl)cc32)CC1`: the maximum recommended daily dose (mmol/kg-bw/day) under setting [9] is 0.000727.
Consider `C=CC[N+]1([C@H]2C[C@H]3[C@@H]4CC[C@H]5C[C@H](O)[C@@H](N6CCOCC6)C[C@]5(C)[C@H]4CC[C@]3(C)[C@H]2OC(C)=O)CCCC1`, for which the maximum recommended daily dose (mmol/kg-bw/day) (TherapeuticCategory: skeletal muscle relaxant, neuromuscular blocker) is 0.00197.
For `c1ccc([C@H]2CN3CCSC3=N2)cc1`, the maximum recommended daily dose (mmol/kg-bw/day) under setting [7] was 0.00408.
For `O=NN(CCCl)C(=O)NC1CCCCC1`, the maximum recommended daily dose (mmol/kg-bw/day) under setting [4] is 0.015.
With `C[C@H]1CC2=CC(=O)CC[C@]2(C)[C@H]2CC[C@@]3(C)[C@@H](CC[C@]3(C)O)[C@H]12`, under setting [4], the maximum recommended daily dose (mmol/kg-bw/day) was 0.0158.
In the case of `CC(=O)[C@@]1(O)CC[C@H]2[C@@H]3C=C(Cl)C4=CC(=O)CC[C@]4(C)[C@H]3CC[C@@]21C`, the maximum recommended daily dose (mmol/kg-bw/day) (TherapeuticCategory: progestogen, antineoplastic) is 9.18e-05.
On to `CCCOC(=O)Cn1cc(I)c(=O)c(I)c1`, for which the maximum recommended daily dose (mmol/kg-bw/day) under setting [5] was 0.224.
As to `COc1cc(Cc2cnc(N)nc2N)cc(OC)c1OC`, the maximum recommended daily dose (mmol/kg-bw/day) under setting [1] is 0.0184.
Regarding `CN1CCCCC1CCN1c2ccccc2Sc2ccc(S(C)=O)cc21` (stereo not drawn), under setting [9], the maximum recommended daily dose (mmol/kg-bw/day) is 0.0129.
Take `CC[N+](C)(C)Cc1ccccc1Br`: for the setting “TherapeuticCategory: antiadrenergic, cardiac depressant”, the maximum recommended daily dose (mmol/kg-bw/day) is 0.0121.
For `CC(=O)OCC1=C(C(=O)O)N2C(=O)[C@@H](NC(=O)CC#N)[C@H]2SC1`, the maximum recommended daily dose (mmol/kg-bw/day) under setting [1] was 0.295.
For `NC(=S)N=Nc1ccc(NN=C(N)N)cc1`, the maximum recommended daily dose (mmol/kg-bw/day) under setting [1] was 0.000704.
As for `CO[C@H]1C[C@@H]2CC[C@@H](C)[C@@](O)(O2)C(=O)C(=O)N2CCCC[C@H]2C(=O)O[C@H]([C@H](C)C[C@@H]2CC[C@@H](O)[C@H](OC)C2)CC(=O)[C@H](C)/C=C(\C)[C@@H](O)[C@@H](OC)C(=O)[C@H](C)C[C@H](C)/C=C/C=C/C=C/1C`, under “TherapeuticCategory: immunosuppressant”, the maximum recommended daily dose (mmol/kg-bw/day) was 0.000148.
As to `Cc1noc(NS(=O)(=O)c2ccc(N)cc2)c1C`, under setting [1], the maximum recommended daily dose (mmol/kg-bw/day) was 0.25.
`Cc1cc(=O)[nH]c(=S)[nH]1`: the maximum recommended daily dose (mmol/kg-bw/day) (TherapeuticCategory: thyroid inhibitor) is 0.0703.
Consider `CN(C)CCCN1c2ccccc2CCc2ccc(Cl)cc21`, for which, under setting [8], the maximum recommended daily dose (mmol/kg-bw/day) is 0.0132.
As to `OCC1COC(CCI)O1` (stereo not drawn), the maximum recommended daily dose (mmol/kg-bw/day) (TherapeuticCategory: expectorant) is 0.0155.
`O=C1Nc2ccc(Cl)cc2C(c2ccccc2)=NC1O` (stereo not drawn): under “TherapeuticCategory: anxiolytic”, the maximum recommended daily dose (mmol/kg-bw/day) is 0.00698.
Take `C=CCN(C1=NCCN1)c1c(Cl)cccc1Cl`: under “TherapeuticCategory: antiarrhythmic”, the maximum recommended daily dose (mmol/kg-bw/day) was 0.00492.
With `CO/N=C(/C(=O)N[C@@H]1C(=O)N2C(C(=O)O)=C(COC(C)=O)CS[C@H]12)c1csc(N)n1`, under setting [1], the maximum recommended daily dose (mmol/kg-bw/day) is 0.439.
For the compound `Nc1ccn([C@H]2CS[C@@H](CO)O2)c(=O)n1`, for the setting “TherapeuticCategory: antiviral”, the maximum recommended daily dose (mmol/kg-bw/day) was 0.0218.
As to `CN1CCc2cccc3c2[C@H]1Cc1ccc(O)c(O)c1-3`, under “TherapeuticCategory: emetic”, the maximum recommended daily dose (mmol/kg-bw/day) is 0.00625.
`CNC(=O)c1c(I)c(NC(=O)CCCCC(=O)Nc2c(I)c(C(=O)O)c(I)c(C(=O)NC)c2I)c(I)c(C(=O)O)c1I`: the maximum recommended daily dose (mmol/kg-bw/day) under setting [5] was 0.0798.
For the compound `N[C@@H](CS)C(=O)O`, where the note is “TherapeuticCategory: none”, the maximum recommended daily dose (mmol/kg-bw/day) is 0.825.
Regarding `CCN(CC)C(=O)[C@@H]1C=C2c3cccc4[nH]cc(c34)C[C@H]2N(C)C1`, where the note is “TherapeuticCategory: antipsychotic, seratonin receptor antagonist”, the maximum recommended daily dose (mmol/kg-bw/day) is 3.86e-05.
In the case of `CN1[C@@H]2CC(OC(=O)[C@H](CO)c3ccccc3)C[C@H]1[C@@H]1O[C@@H]12` (stereo partly drawn), the maximum recommended daily dose (mmol/kg-bw/day) under setting [3] was 1.09e-06.
`CC(C)=CCN1CC[C@@]2(C)c3cc(O)ccc3C[C@@H]1[C@@H]2C`: the maximum recommended daily dose (mmol/kg-bw/day) (TherapeuticCategory: narcotic analgesic) is 0.00876.
